The assay concerns HBV. In words: HepG2-NTCP infection protocol, HBeAg quantification by ECL-ELISA. In kind it is cell-based. The settings on record: HepG2-NTCP cells infected with HBV at MOI 50, compound 24 hours, then 72 hours, HBeAg in supernatant. How it is done:
HepG2 cells expressing the sodium taurocholate cotransporting polypeptide (HepG2-NTCP) were maintained in culture using HepG2-NTCP growth medium (DMEM (HyClone, Cat #SH30243.02) supplemented with 10% FBS, 150 μg/mL G418 (Alfa Aesar, Cat #J62671), 50 U/mL penicillin-streptomycin (Invitrogen, Cat #15140-122), and 0.5 μg/mL blasticidin (Sigma, Cat #15205)). Prior to infection, the cells were washed twice with 1×DPBS (Invitrogen, Cat #14190-136) and treated with 3 mL of 0.05% trypsin (Invitrogen, Cat #25200-056) to dissociate the cells. Following dissociation, 10 mL of HepG2-NTCP growth medium was added to the cells to neutralize the trypsin and the cells were then centrifuged at 1,300 rpm for 5 minutes. Following centrifugation, the cells were resuspended in 10 mL of HepG2-NTCP growth medium, counted, and then centrifuged at 1,300 rpm for 5 minutes. The cell pellet was resuspended in DMEM supplemented with 5% FBS, 50 U/mL penicillin-streptomycin, 4% PEG-8000 (Hamilton Research, Cat #HR2-515), and 1% DMSO (Sigma, Cat #D4540) to a density of 5.6×10^5 cells/mL and infected with HBV at an MOI of 50. Immediately after infection, 90 μL of the cell/HBV mixture was added to a 96-well plate containing 10 μL of compound and incubated at 37° C. for 24 hours (2% final DMSO concentration). After the incubation, the infection media was removed and replaced with DMEM supplemented with 5% FBS, 50 U/mL penicillin-streptomycin, and 1% DMSO and incubated for an additional 72 hours. At the end of the incubation, the plates were spun at 1,800 rpm for 8 minutes and the supernatant was removed for HBeAg quantification using electrochemiluminescence enzyme-linked immunosorbent assays (ECL-ELISA).
To conduct the HBeAg ECL-ELISA, Lumitrack high-binding 96-well plates (Greiner, Cat #655074) were treated with 625 ng/mL HBeAg mAb (Biocheck, Cat #70426) in 1×DPBS for 2 hours at 25° C. with shaking. The HBeAg mAb solution was then removed and the plates treated with 1×DPBS containing 0.5% bovine serum albumin (BSA) (Sigma, Cat #A7030-100 g) for 2 hours at 25° C. with shaking. The HBeAg-coated plates were then washed 4 times with 1×DPBS containing 0.05% Tween 20 (DPBS-T) (Thermo Fisher Scientific, Cat #J61544-K2). Following the wash, 90 μL of HRP-conjugated antibody (Fitzgerald, Cat #61-H10K), diluted 1:8,000 in 1×DPBS-T containing 0.5% BSA, was added to the HBeAg-coated plates along with 10 μL of sample. The plates were then incubated for 2 hours at 25° C. with shaking. Following the incubation, the sample was then removed and 200 μL of 1×PBS-T was added and the plates were incubated for 10 minutes at 25° C. with shaking. The plates were then washed 6 times with 1×PBS-T and blotted dry. 80 μL of ECL substrate (Millipore, Cat #WBKLS0500) was then added to the plate and the luminescence was measured using a Tecan M1000 Pro plate reader.

pEC50: −log10 of the molar value. Bounds are passed on as bounds.

Consider 46 molecules from US20250163009A1, “BENZOTHIA(DIA)ZEPINE COMPOUNDS FOR TREATMENT OF HBV AND HDV” (Assembly Biosciences, Inc., priority 2022, published 2025).

`CCCCC1CN(C2CCNCC2)c2cc(SC)c(O/C=C(\F)C(=O)O)cc2S(=O)(=O)N1C` (stereo not shown) [Example 46]: where the note is “Hepatitis B virus”, the pEC50 was 5.30 to 6.00.

As to `CCCCC1CN(C2CCOCC2)c2cc(SC)c(O/C=C(\F)C(=O)O)cc2S(=O)(=O)N1C` (stereo not shown) [Example 26], under “Hepatitis B virus”, the pEC50 was 6.00 to 7.00.

`CCCCC1CN(Cc2ccccc2)c2cc(SC)c(O/C=C/C(=O)O)cc2S(=O)(=O)N1C` (stereo not shown) [Example 15] had a pEC50 (Hepatitis B virus) of 6.00 to 7.00.

Molecule `CCCCC1CN(C2CCOCC2)c2cc(SC)c(O/C=C/C(=O)O)cc2S(=O)(=O)N1C` (stereo not shown) [Example 23] gave a pEC50 (Hepatitis B virus) of 6.00 to 7.00.

As for `CCCCC1CN(c2ccc(N3CCCC3)cc2)c2cc(SC)c(O/C=C(\F)C(=O)O)cc2S(=O)(=O)N1C` (stereo not shown) [Example 11], the pEC50 (Hepatitis B virus) is > 7.00.

For the molecule `CCCCC1CN(Cc2ccc(F)c(F)c2)c2cc(SC)c(O/C=C(\F)C(=O)O)cc2S(=O)(=O)N1C` (stereo not shown) [Example 43], the pEC50 (Hepatitis B virus) was > 7.00.

On to `CCCCC1CN(Cc2ccc(F)cc2)c2cc(SC)c(O/C=C(\F)C(=O)O)cc2S(=O)(=O)N1C` (stereo not shown) [Example 10], for which the pEC50 (Hepatitis B virus) is > 7.00.

In the case of `C#Cc1ccc(N2CC(CCCC)N(C)S(=O)(=O)c3cc(O/C=C/C(=O)O)c(SC)cc32)cc1` (stereo not shown) [Example 9], for the setting “Hepatitis B virus”, the pEC50 is > 7.00.

For `CCCC[C@H]1CN([C@@H]2CCN(C)C2)c2cc(SC)c(O/C=C(\F)C(=O)O)cc2S(=O)(=O)N1C` (relative stereo) [Example 54], under “Hepatitis B virus”, the pEC50 is 5.30 to 6.00.

On to `CCCCC1CN(C(=O)c2ccccc2)c2cc(SC)c(O/C=C(\F)C(=O)OCC)cc2S(=O)(=O)N1C` (stereo not shown) [Example 39], for which the pEC50 (Hepatitis B virus) is 5.30 to 6.00.

Where the note is “Hepatitis B virus”, `CCCC[C@H]1CN(C2CCN(C)C2)c2cc(SC)c(O/C=C(\F)C(=O)O)cc2S(=O)(=O)N1C` (stereo in doubt) [Example 55] showed a pEC50 of 5.30 to 6.00.

On to `CCCCC1CN(Cc2ccc(SC)cc2)c2cc(SC)c(O/C=C(\F)C(=O)OCC)cc2S(=O)(=O)N1C` (stereo not shown) [Example 13], for which the pEC50 (Hepatitis B virus) is 6.00 to 7.00.

For `CCCCC1CN(Cc2cccc(F)c2)c2cc(SC)c(O/C=C(\F)C(=O)OCC)cc2S(=O)(=O)N1C` (stereo not shown) [Example 37], for the setting “Hepatitis B virus”, the pEC50 is > 7.00.

For `CCCCC1CN(Cc2cc(F)ccc2F)c2cc(SC)c(O/C=C(\F)C(=O)O)cc2S(=O)(=O)N1C` (stereo not shown) [Example 34], the pEC50 (Hepatitis B virus) was > 7.00.

Molecule `CCCCC1CN(C2CCN(C(C)=O)CC2)c2cc(SC)c(O/C=C(\F)C(=O)O)cc2S(=O)(=O)N1C` (stereo not shown) [Example 48] had a pEC50 (Hepatitis B virus) of 5.30 to 6.00.

For the molecule `CC#CCN1CC(CCCC)N(C)S(=O)(=O)c2cc(O/C=C(\F)C(=O)O)c(SC)cc21` (stereo not shown) [Example 27], under “Hepatitis B virus”, the pEC50 was > 7.00.

In the case of `CCCCC1CN(C2CCCC2)c2cc(SC)c(O/C=C/C(=O)O)cc2S(=O)(=O)N1C` (stereo not shown) [Example 14], where the note is “Hepatitis B virus”, the pEC50 was 6.00 to 7.00.

Take `CCCCC1CN(Cc2cc(F)ccc2F)c2cc(SC)c(O/C=C(\F)C(=O)OCC)cc2S(=O)(=O)N1C` (stereo not shown) [Example 33]: the pEC50 (Hepatitis B virus) is > 7.00.

On to `CCCCC1CN(c2ncccn2)c2cc(SC)c(O/C=C(\F)C(=O)OCC)cc2S(=O)(=O)N1C` (stereo not shown) [Example 20], for which the pEC50 (Hepatitis B virus) is > 7.00.

In the case of `CCCCC1CN(Cc2ccccc2)c2cc(SC)c(O/C=C(\F)C(=O)O)cc2S(=O)(=O)N1C` (stereo not shown) [Example 28], the pEC50 (Hepatitis B virus) was > 7.00.

Molecule `CCCCC1CN(C(=O)c2ccccc2)c2cc(SC)c(O/C=C(\F)C(=O)O)cc2S(=O)(=O)N1C` (stereo not shown) [Example 41] gave a pEC50 (Hepatitis B virus) of 5.30 to 6.00.

With `CCCCC1CN(CC2CCC(F)(F)CC2)c2cc(SC)c(O/C=C(\F)C(=O)O)cc2S(=O)(=O)N1C` (stereo not shown) [Example 36], where the note is “Hepatitis B virus”, the pEC50 was > 7.00.

For the molecule `CCCCC1CN(C2CCN(C)CC2)c2cc(SC)c(O/C=C(\F)C(=O)O)cc2S(=O)(=O)N1C` (stereo not shown) [Example 47], the negative-log EC50 (pEC50) (Hepatitis B virus) was 5.30 to 6.00.

Molecule `CCCCC1CN(c2cccnc2)c2cc(SC)c(O/C=C/C(=O)O)cc2S(=O)(=O)N1C` (stereo not shown) [Example 4] gave a pEC50 (Hepatitis B virus) of 5.30 to 6.00.

As to `CCCCC1CN(c2ccccn2)c2cc(SC)c(O/C=C/C(=O)O)cc2S(=O)(=O)N1C` (stereo not shown) [Example 5], the pEC50 (Hepatitis B virus) was 6.00 to 7.00.

As to `CCCCC1CN(C2CCCCC2)c2cc(SC)c(O/C=C(\F)C(=O)O)cc2S(=O)(=O)N1C` (stereo not shown) [Example 16], the pEC50 (Hepatitis B virus) was > 7.00.

`CCCCC1CN(C2CCC(N)CC2)c2cc(SC)c(O/C=C(\F)C(=O)O)cc2S(=O)(=O)N1C` (stereo not shown) [Example 51] showed a pEC50 (Hepatitis B virus) of 5.30 to 6.00.

For the molecule `CCCCC1CN(Cc2ccc(F)cc2)c2cc(SC)c(O/C=C(\F)C(=O)OCC)cc2S(=O)(=O)N1C` (stereo not shown) [Example 12], the pEC50 (Hepatitis B virus) was 6.00 to 7.00.

Consider `CCCCC1CN(C2CCC(F)(F)CC2)c2cc(SC)c(O/C=C(\F)C(=O)O)cc2S(=O)(=O)N1C` (stereo not shown) [Example 2, (Z)-3-((3-butyl-5-(4,4-difluorocyclohexyl)-2-methyl-7-(methylthio)-1,1-dioxido-2,3,4,5-tetrahydrobenzo[f][1,2,5]thiadiazepin-8-yl)oxy)-2-fluoroacrylic acid], for which the pEC50 (Hepatitis B virus) is > 7.00.

Regarding `CCCCC1CN(c2nccs2)c2cc(SC)c(O/C=C(\F)C(=O)O)cc2S(=O)(=O)N1C` (stereo not shown) [Example 49], under “Hepatitis B virus”, the pEC50 was 6.00 to 7.00.

For the molecule `CCCCC1CN(C2CCC(OC)CC2)c2cc(SC)c(O/C=C(\F)C(=O)OCC)cc2S(=O)(=O)N1C` (stereo not shown) [Example 18], where the note is “Hepatitis B virus”, the pEC50 was > 7.00.

Under “Hepatitis B virus”, `CCCCC1CN(C2CCOC2)c2cc(SC)c(O/C=C/C(=O)O)cc2S(=O)(=O)N1C` (stereo not shown) [Example 22] showed a pEC50 of 5.30 to 6.00.

Consider `CCCCC1CN(Cc2ccc(SC)cc2)c2cc(SC)c(O/C=C(\F)C(=O)O)cc2S(=O)(=O)N1C` (stereo not shown) [Example 17], for which the pEC50 (Hepatitis B virus) was > 7.00.

Take `CCCCC1CN(C2CCC(F)(F)CC2)c2cc(SC)c(O/C=C(\F)C(=O)O)cc2S(=O)(=O)N1C` (single isomer, unassigned) [Example 2a]: the pEC50 was > 7.00.

As to `CCCCC1CN(C2CCC(O)CC2)c2cc(SC)c(O/C=C(\F)C(=O)O)cc2S(=O)(=O)N1C` (stereo not shown) [Example 31], the pEC50 (Hepatitis B virus) was 6.00 to 7.00.

Consider `CCCCC1CN(C2CCC(F)CC2)c2cc(SC)c(O/C=C(\F)C(=O)OCC)cc2S(=O)(=O)N1C` (stereo not shown) [Example 29], for which the pEC50 (Hepatitis B virus) was 6.00 to 7.00.

Molecule `CCCCC1CN(C2CC3CCC2C3)c2cc(SC)c(O/C=C(\F)C(=O)O)cc2S(=O)(=O)N1C` (stereo not shown) [Example 45] gave a pEC50 (Hepatitis B virus) of 5.30 to 6.00.

Consider `CCCCC1CN(Cc2ccc(F)c(F)c2)c2cc(SC)c(O/C=C(\F)C(=O)OCC)cc2S(=O)(=O)N1C` (stereo not shown) [Example 42], for which, where the note is “Hepatitis B virus”, the pEC50 is 6.00 to 7.00.

`CCCCC1CN(Cc2cccc(SC)c2)c2cc(SC)c(O/C=C(\F)C(=O)OCC)cc2S(=O)(=O)N1C` (stereo not shown) [Example 38]: where the note is “Hepatitis B virus”, the pEC50 was 6.00 to 7.00.

With `CCCCC1CN(C(C)c2ccccc2)c2cc(SC)c(O/C=C(\F)C(=O)O)cc2S(=O)(=O)N1C` (stereo not shown) [Example 52], the pEC50 (Hepatitis B virus) is > 7.00.

`CCCCC1CN(C(C)c2ccccc2)c2cc(SC)c(O/C=C(\F)C(=O)OCC)cc2S(=O)(=O)N1C` (stereo not shown) [Example 44] had a pEC50 (Hepatitis B virus) of 6.00 to 7.00.

For the molecule `CCCCC1CN(c2ccn(C)n2)c2cc(SC)c(O/C=C(\F)C(=O)O)cc2S(=O)(=O)N1C` (stereo not shown) [Example 53], the negative logarithm of the EC50 (pEC50) (Hepatitis B virus) was 6.00 to 7.00.

Molecule `CCCCC1CN(C2CCOC2)c2cc(SC)c(O/C=C(\F)C(=O)O)cc2S(=O)(=O)N1C` (stereo not shown) [Example 50] had a pEC50 (Hepatitis B virus) of 6.00 to 7.00.

For the molecule `CCCCC1CN([C@H]2CC[C@H](OC)CC2)c2cc(SC)c(O/C=C(\F)C(=O)O)cc2S(=O)(=O)N1C` (stereo partly shown) [Example 56], for the setting “Hepatitis B virus”, the pEC50 was > 7.00.

Consider `CCCCC1CN(CC2CCC(F)(F)CC2)c2cc(SC)c(O/C=C(\F)C(=O)OCC)cc2S(=O)(=O)N1C` (stereo not shown) [Example 35], for which the pEC50 (Hepatitis B virus) is 6.00 to 7.00.

As for `CCCCC1CN(c2ccc(N3CCCC3)cc2)c2cc(SC)c(O/C=C/C(=O)O)cc2S(=O)(=O)N1C` (stereo not shown) [Example 8], the pEC50 (Hepatitis B virus) is > 7.00.

What is called pEC50 is the negative decadic logarithm of the EC50, by convention in mol/L. High values mean a small EC50, low ones a large EC50.
